System: SARS-CoV2 virus
Experiment: Inhibition of Viral Replication (plaque count)
Type: cell-based
Settings: with increased concentration of inhibitor

SMILES: CC(C)C[C@H](NC(=O)c1cc2ccccc2[nH]1)C(=O)NC(C=O)Cc1ccc(F)cc1 (stereo partly shown) [Compound 112]
- inhibition ability (FIG. 6): increased inhibition ability of Compound No. 112 with increased concentration

Reference: patent US20260146062A1, “COMPOUNDS AND METHODS FOR TREATING DISEASES CAUSED BY VIRUSES AND BACTERIA” (The Trustees of Indiana University, priority 2022, published 2026)
